# Reference: ChEMBL document CHEMBL1144763, “Synthesis of diglycosylceramides and evaluation of their iNKT cell stimulatory properties” (Bioorg Med Chem Lett, 2008)
# Active and inactive are the calls of the source. The rule behind the calls is not given here.
# Tested on: DN3.2.D3
# Assay: Stimulation of IL2 release in mouse DN3.2.D3 cells by ELISA
# Assay type: functional, cell-based
row,Compound,Activity
1,CCCCCCCCCCCCCC[C@@H](O)[C@@H](O)[C@H](CO[C@H]1O[C@H](CNC(C)=O)[C@H](O)[C@H](O)[C@H]1O[C@H]1O[C@H](CO)[C@H](O)[C@H](O)[C@H]1O)NC(=O)CCCCCCC,Active
2,CCCCCCCCCCCCCC[C@@H](O)[C@@H](O)[C@H](CO[C@H]1O[C@H](CNC(C)=O)[C@H](O)[C@H](O)[C@H]1O)NC(=O)CCCCCCC,Active
3,CCCCCCCCCCCCCC[C@@H](O)[C@@H](O)[C@H](CO[C@H]1O[C@H](CO)[C@H](O)[C@H](O)[C@H]1O)NC(=O)CCCCCCC,Active
